The results in this text go back to patent publication US20090181986A1, “SUBSTITUTED HETEROCYCLIC COMPOUNDS” (priority 2007, published 2009).

This data set addresses hERG potassium channel (Homo sapiens, UniProt Q12809). Nature of the data set: hERG screening assay (PatchXpress patch clamp, CHO cells).

Chain of hERG potassium channel (Q12809 whole entry): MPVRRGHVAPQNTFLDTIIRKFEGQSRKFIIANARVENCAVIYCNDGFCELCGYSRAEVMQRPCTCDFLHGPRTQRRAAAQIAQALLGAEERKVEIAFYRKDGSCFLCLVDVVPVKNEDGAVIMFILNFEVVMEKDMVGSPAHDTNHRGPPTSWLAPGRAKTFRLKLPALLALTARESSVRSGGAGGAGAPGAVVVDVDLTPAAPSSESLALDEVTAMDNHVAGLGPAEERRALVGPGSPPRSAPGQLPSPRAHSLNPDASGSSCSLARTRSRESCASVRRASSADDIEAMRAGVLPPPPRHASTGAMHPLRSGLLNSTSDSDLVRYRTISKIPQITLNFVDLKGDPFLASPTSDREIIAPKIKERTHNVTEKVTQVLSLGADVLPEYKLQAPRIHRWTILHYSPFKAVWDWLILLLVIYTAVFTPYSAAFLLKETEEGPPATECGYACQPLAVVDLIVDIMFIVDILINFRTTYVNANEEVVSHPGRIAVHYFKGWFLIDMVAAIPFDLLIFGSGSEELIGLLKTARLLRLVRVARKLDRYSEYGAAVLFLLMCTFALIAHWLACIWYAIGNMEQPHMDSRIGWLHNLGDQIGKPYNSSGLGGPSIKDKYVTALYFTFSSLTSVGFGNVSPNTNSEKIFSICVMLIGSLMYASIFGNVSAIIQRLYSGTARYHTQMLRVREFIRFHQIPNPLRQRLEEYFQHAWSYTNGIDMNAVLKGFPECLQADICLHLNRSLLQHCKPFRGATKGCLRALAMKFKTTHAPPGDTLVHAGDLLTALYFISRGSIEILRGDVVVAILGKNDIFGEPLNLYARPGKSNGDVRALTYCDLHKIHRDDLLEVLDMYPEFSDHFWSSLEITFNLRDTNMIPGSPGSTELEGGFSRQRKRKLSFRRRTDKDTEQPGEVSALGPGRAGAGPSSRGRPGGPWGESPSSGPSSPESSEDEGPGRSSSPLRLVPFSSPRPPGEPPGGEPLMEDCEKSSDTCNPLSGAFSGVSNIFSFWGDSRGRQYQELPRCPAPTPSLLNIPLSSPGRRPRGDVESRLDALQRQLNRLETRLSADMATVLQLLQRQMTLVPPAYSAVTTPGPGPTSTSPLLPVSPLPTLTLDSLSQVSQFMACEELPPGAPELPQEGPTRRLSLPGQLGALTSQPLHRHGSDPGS
Experimental: Compounds were screened to test their activity in blocking the hERG potassium channel. The hERG channel is heterologously expressed in a CHO (Chinese Hamster Ovary) cell line. Cells are maintained with standard tissue culture procedures and stable channel expression is maintained with 500 μg/ml G418 in the culture medium. Cells are harvested for testing on the PatchXpress automated patch clamp with Acctumax (Innovative Cell Technologies, San Diego, Calif.) to isolate single cells.
The following solutions are used for electrophysiological recordings. The external solution contains: 2 mM CaCl2; 2 mM MgCl2; 4 mM KCl; 150 mM NaCl; 10 mM Glucose; 10 mM HEPES (pH 7.4 with 1M NaOH, osmolarity).
hERG channels are activated when the voltage is stepped to +20 mV from the −80 mV holding potential (see FIG. 3). During a 5 second step at +20 mV, the channels activate and then largely inactivate, so the currents are relatively small. Upon returning to −50 mV from +20 mV, hERG currents transiently become much larger as inactivation is rapidly removed and then the channel closes. The first step to −50 mV for 300 ms is used as a baseline for measuring the peak amplitude during the step to −50 mV after channel activation. The peak current at −50 mV is measured both under control conditions and after addition of compound.
All compounds are prepared as 10 mM DMSO stocks in glass vials. Stock solutions are mixed by vigorous vortexing and sonication for about 2 minutes at room temperature. For testing, compounds are diluted in glass vials using an intermediate dilution step in pure DMSO and then further diluted to working concentrations in external solution. Dilutions are prepared no longer than 20 minutes before use.
After achieving the whole-cell configuration, cells are monitored for 90 seconds to assess stability and washed with external solution for 66 seconds. The voltage protocol described above is then applied to the cells every 12 seconds and throughout the whole procedure. Only cells with stable recording parameters and meeting specified health criteria are allowed to enter the compound addition procedure.
External solution containing 0.1% DMSO (vehicle) is applied to the cells first to establish the control peak current amplitude. After allowing the current to stabilize for 3 to 5 minutes, 1 μM and then 10 μM test compounds are applied. Each compound concentration is added 4 times and cells are kept in test solution until the effect of the compound reaches steady state or for a maximum of 12 minutes. […] Washout in the external solution compartment is performed until the recovery of the current reaches steady state. Data are analyzed using DataXpress, Clampfit (Molecular Devices, Inc., Sunnyvale) and Origin 7 (Originlab Corp.)

On to `CC1=C(C(=O)OC(c2ccccc2)C2CC2)C(c2cccc3ccccc23)n2nnnc2N1` (centres unmarked) [PT-002, cyclopropyl(phenyl)methyl 5-methyl-7-(naphthalen-1-yl)-4,7-dihydrotetrazolo[1,5-a]pyrimidine-6-carboxylate], for which the “hERG Patch Clamp hERG % blk (1 μM test cmpd)” value came out at 11.5% and the “hERG Patch Clamp hERG % blk (10 μM test cmpd)” value worked out at 28%.

Consider `CCOC(=O)C1=C(CC)Nc2nnnn2C1c1cccc2ccccc12` (centres unmarked) [PT-010, ethyl 5-ethyl-7-(naphthalen-1-yl)-4,7-dihydrotetrazolo[1,5-a]pyrimidine-6-carboxylate], for which the “hERG Patch Clamp hERG % blk (1 μM test cmpd)” value was 12.5% and the “hERG Patch Clamp hERG % blk (10 μM test cmpd)” value was determined as 30%.

As for `CCOC(=O)C1=C(C)Nc2nnnn2C1c1csc2ccccc12` (centres unmarked) [PT-017, ethyl 7-(benzo[b]thiophen-3-yl)-5-methyl-4,7-dihydrotetrazolo[1,5-a]pyrimidine-6-carboxylate], the “hERG Patch Clamp hERG % blk (1 μM test cmpd)” value came to 10% and the “hERG Patch Clamp hERG % blk (10 μM test cmpd)” value is given as 23.5%.

In the case of `CCOC(=O)C1=C(C)Nc2nnnn2C1c1sc2ccccc2c1C` (centres unmarked) [PT-018, ethyl 5-methyl-7-(3-methylbenzo[b]thiophen-2-yl)-4,7-dihydrotetrazolo[1,5-a]pyrimidine-6-carboxylate], the “hERG Patch Clamp hERG % blk (1 μM test cmpd)” value was determined as 14.5% and the “hERG Patch Clamp hERG % blk (10 μM test cmpd)” value was 36.5%.

In the case of `CCOC(=O)C1=C(C)Nc2nnnn2C1c1cc2ccccc2o1` (centres unmarked) [PT-019, ethyl 7-(benzofuran-2-yl)-5-methyl-4,7-dihydrotetrazolo[1,5-a]pyrimidine-6-carboxylate], the “hERG Patch Clamp hERG % blk (1 μM test cmpd)” value is recorded as 10% and the “hERG Patch Clamp hERG % blk (10 μM test cmpd)” value was 26%.

For the compound `CC1=C(C(=O)OC(C)C)C(c2cccc3ccccc23)n2nnnc2N1` (centres unmarked) [PT-021, isopropyl 5-methyl-7-(naphthalen-1-yl)-4,7-dihydrotetrazolo[1,5-a]pyrimidine-6-carboxylate], the “hERG Patch Clamp hERG % blk (1 μM test cmpd)” value came to 13% and the “hERG Patch Clamp hERG % blk (10 μM test cmpd)” value is listed as 43.5%.

With `CC1=C(C(=O)OCc2ccccc2)C(c2ccccc2-c2ccccc2)n2nnnc2N1` (centres unmarked) [PT-025, benzyl 7-(biphenyl-2-yl)-5-methyl-4,7-dihydrotetrazolo[1,5-a]pyrimidine-6-carboxylate], the “hERG Patch Clamp hERG % blk (1 μM test cmpd)” value was found to be 11% and the “hERG Patch Clamp hERG % blk (10 μM test cmpd)” value turned out to be 53%.

Consider `COc1ccc2ccccc2c1C1C(C(=O)OCc2ccccc2)=C(C)Nc2nnnn21` (centres unmarked) [PT-030, benzyl 7-(2-methoxynaphthalen-1-yl)-5-methyl-4,7-dihydrotetrazolo[1,5-a]pyrimidine-6-carboxylate], for which the “hERG Patch Clamp hERG % blk (1 μM test cmpd)” value is on record as 10.5% and the “hERG Patch Clamp hERG % blk (10 μM test cmpd)” value is recorded as 34.5%.

`CC1=C(C(=O)OCc2ccccc2)C(c2ccc(N(C)C)c3ccccc23)n2nnnc2N1` (centres unmarked) [PT-032, benzyl 7-(4-(dimethylamino)naphthalen-1-yl)-5-methyl-4,7-dihydrotetrazolo[1,5-a]pyrimidine-6-carboxylate]: the “hERG Patch Clamp hERG % blk (1 μM test cmpd)” value is 19% and the “hERG Patch Clamp hERG % blk (10 μM test cmpd)” value was 50.5%.

For the compound `CC1=C(C(=O)OCc2ccccc2)C(c2cccc3c2OCO3)n2nnnc2N1` (centres unmarked) [PT-034, benzyl 7-(benzo[d][1,3]dioxol-4-yl)-5-methyl-4,7-dihydrotetrazolo[1,5-a]pyrimidine-6-carboxylate], the “hERG Patch Clamp hERG % blk (1 μM test cmpd)” value was found to be 14.5% and the “hERG Patch Clamp hERG % blk (10 μM test cmpd)” value was 56%.

As for `CC1=C(C(=O)O[C@@H](C)c2ccccc2)[C@@H](c2cccc3ccccc23)n2nnnc2N1` [PT-050, (R)-((S)-1-phenylethyl) 5-methyl-7-(naphthalen-1-yl)-4,7-dihydrotetrazolo[1,5-a]pyrimidine-6-carboxylate], the “hERG Patch Clamp hERG % blk (1 μM test cmpd)” value is 10% and the “hERG Patch Clamp hERG % blk (10 μM test cmpd)” value worked out at 53.5%.

In the case of `COc1ccc(COC(=O)C2=C(C)Nc3nnnn3C2c2cccc3ccccc23)cc1OC` (centres unmarked) [PT-061, 3,4-dimethoxybenzyl 5-methyl-7-(naphthalen-1-yl)-4,7-dihydrotetrazolo[1,5-a]pyrimidine-6-carboxylate], the “hERG Patch Clamp hERG % blk (1 μM test cmpd)” value stood at 24% and the “hERG Patch Clamp hERG % blk (10 μM test cmpd)” value is given as 46.5%.

Turning to `CC1=C(C(=O)OC(C)Cc2ccccc2)C(c2cccc3ccccc23)n2nnnc2N1` (centres unmarked) [PT-064, 1-phenylpropan-2-yl 5-methyl-7-(naphthalen-1-yl)-4,7-dihydrotetrazolo[1,5-a]pyrimidine-6-carboxylate], the “hERG Patch Clamp hERG % blk (1 μM test cmpd)” value is on record as 20.5% and the “hERG Patch Clamp hERG % blk (10 μM test cmpd)” value came to 37.5%.

As for `CC1=C(C(=O)NCc2ccccc2)C(c2ccc3ccccc3c2)n2nnnc2N1` (centres unmarked) [PT-068, N-benzyl-5-methyl-7-(naphthalen-2-yl)-4,7-dihydrotetrazolo[1,5-a]pyrimidine-6-carboxamide], the “hERG Patch Clamp hERG % blk (1 μM test cmpd)” value came to 14% and the “hERG Patch Clamp hERG % blk (10 μM test cmpd)” value was 22.5%.

Turning to `CCOC(=O)C1=C(C)Nc2[nH]nc(C)c2C1c1cccc2ccccc12` (centres unmarked) [PT-074, ethyl 3,6-dimethyl-4-(naphthalen-1-yl)-4,7-dihydro-1H-pyrazolo[3,4-b]pyridine-5-carboxylate], the “hERG Patch Clamp hERG % blk (1 μM test cmpd)” value is given as 14% and the “hERG Patch Clamp hERG % blk (10 μM test cmpd)” value is recorded as 43%.

`COC(=O)c1ccc(-c2n[nH]c3c2C(c2cccc4ccccc24)C2=C(COC2=O)N3)cc1` (centres unmarked) [PT-085, methyl 4-(4-(naphthalen-1-yl)-5-oxo-4,5,7,8-tetrahydro-1H-furo[3,4-b]pyrazolo[4,3-e]pyridin-3-yl)benzoate]: the “hERG Patch Clamp hERG % blk (1 μM test cmpd)” value turned out to be 34% and the “hERG Patch Clamp hERG % blk (10 μM test cmpd)” value is 44.5%.

Consider `CCOC(=O)C1=C(C)Nc2nccn2C1c1ccc2ccccc2c1` (centres unmarked) [PT-086, ethyl 7-methyl-5-(naphthalen-2-yl)-5,8-dihydroimidazo[1,2-a]pyrimidine-6-carboxylate], for which the “hERG Patch Clamp hERG % blk (1 μM test cmpd)” value was determined as 13.5% and the “hERG Patch Clamp hERG % blk (10 μM test cmpd)” value turned out to be 57.5%.

On to `CCCC1=C(C(=O)OCC)C(c2ccc(C(=O)O)cc2)C2=C(CC(C)(C)CC2=O)N1` (centres unmarked) [PT-133, 4-(3-(ethoxycarbonyl)-7,7-dimethyl-5-oxo-2-propyl-1,4,5,6,7,8-hexahydroquinolin-4-yl)benzoic acid], for which the “hERG Patch Clamp hERG % blk (1 μM test cmpd)” value was 10% and the “hERG Patch Clamp hERG % blk (10 μM test cmpd)” value was 12%.

Consider `CCOC(=O)C1=C(C)NC2=C(C(=O)CCC2)C1c1cccc2ncccc12` (centres unmarked) [PT-140, ethyl 2-methyl-5-oxo-1,4,5,6,7,8-hexahydro-4,5′-biquinoline-3-carboxylate], for which the “hERG Patch Clamp hERG % blk (1 μM test cmpd)” value was determined as 13.5% and the “hERG Patch Clamp hERG % blk (10 μM test cmpd)” value worked out at 34.5%.

Take `CCOC(=O)C1=C(C)NC2=C(C(=O)CCC2)C1c1ccnc2ccccc12` (centres unmarked) [PT-190, ethyl 2-methyl-5-oxo-1,4,5,6,7,8-hexahydro-4,4′-biquinoline-3-carboxylate]: the “hERG Patch Clamp hERG % blk (1 μM test cmpd)” value was 10.5% and the “hERG Patch Clamp hERG % blk (10 μM test cmpd)” value was determined as 32%.

For `CC1=C(C(=O)OCc2ccccc2)[C@@H](c2ccccc2-c2ccc(Cl)s2)n2nnnc2N1` [PT-237, (R)-benzyl 7-(2-(5-chlorothiophen-2-yl)phenyl)-5-methyl-4,7-dihydrotetrazolo[1,5-a]pyrimidine-6-carboxylate], the “hERG Patch Clamp hERG % blk (1 μM test cmpd)” value stood at 11.5% and the “hERG Patch Clamp hERG % blk (10 μM test cmpd)” value turned out to be 22.5%.

Take `CC1=C(C(=O)OCc2ccccc2)C(c2ccccc2-c2ccc(C(=O)O)cc2)C2=C(CCCC2=O)N1` (centres unmarked) [PT-249, 2′-(3-(benzyloxycarbonyl)-2-methyl-5-oxo-1,4,5,6,7,8-hexahydroquinolin-4-yl)biphenyl-4-carboxylic acid]: the “hERG Patch Clamp hERG % blk (1 μM test cmpd)” value is reported as 11.5% and the “hERG Patch Clamp hERG % blk (10 μM test cmpd)” value is 15.5%.

Consider `CC1=C(c2nnc(CCc3ccccc3)o2)C(c2cccc3ccccc23)n2nnnc2N1` (centres unmarked) [PT-252, 2-(5-methyl-7-(naphthalen-1-yl)-4,7-dihydrotetrazolo[1,5-a]pyrimidin-6-yl)-5-phenethyl-1,3,4-oxadiazole], for which the “hERG Patch Clamp hERG % blk (1 μM test cmpd)” value is on record as 10.5% and the “hERG Patch Clamp hERG % blk (10 μM test cmpd)” value is given as 78%.

For `CC1=C(C(=O)OCc2ccccc2)C(c2ccccc2-c2ccc(C(=O)O)cc2)n2nnnc2N1` (centres unmarked) [PT-254, 2′-(6-(benzyloxycarbonyl)-5-methyl-4,7-dihydrotetrazolo[1,5-a]pyrimidin-7-yl)biphenyl-4-carboxylic acid], the “hERG Patch Clamp hERG % blk (1 μM test cmpd)” value came to 15% and the “hERG Patch Clamp hERG % blk (10 μM test cmpd)” value stood at 20%.

Consider `CC1=C(C(=O)OCc2ccc(Cn3cccn3)cc2)C(c2cccc3ccccc23)n2nnnc2N1` (centres unmarked) [PT-279, 4-((1H-pyrazol-1-yl)methyl)benzyl 5-methyl-7-(naphthalen-1-yl)-4,7-dihydrotetrazolo[1,5-a]pyrimidine-6-carboxylate], for which the “hERG Patch Clamp hERG % blk (1 μM test cmpd)” value came out at 12.5% and the “hERG Patch Clamp hERG % blk (10 μM test cmpd)” value is recorded as 45%.

As for `CC1=C(C(=O)OCc2ccc(Cn3cccn3)cc2)C(c2cccs2)n2nnnc2N1` (centres unmarked) [PT-280, 4-((1H-pyrazol-1-yl)methyl)benzyl 5-methyl-7-(thiophen-2-yl)-4,7-dihydrotetrazolo[1,5-a]pyrimidine-6-carboxylate], the “hERG Patch Clamp hERG % blk (1 μM test cmpd)” value came out at 11.5% and the “hERG Patch Clamp hERG % blk (10 μM test cmpd)” value is 48%.

`CC1=C(C(=O)OCc2ccccc2)C(c2c(-c3ccc(C(=O)O)cc3)sc3ccccc23)n2nnnc2N1` (centres unmarked) [PT-294, 4-(3-(6-(benzyloxycarbonyl)-5-methyl-4,7-dihydrotetrazolo[1,5-a]pyrimidin-7-yl)benzo[b]thiophen-2-yl)benzoic acid]: the “hERG Patch Clamp hERG % blk (1 μM test cmpd)” value was 12.5% and the “hERG Patch Clamp hERG % blk (10 μM test cmpd)” value stood at 15.5%.

Turning to `COc1cc(Cl)ccc1COC(=O)C1=C(C)NC2=C(C(=O)CCC2)C1c1c(Cl)cccc1Cl` (centres unmarked) [PT-303, 4-chloro-2-methoxybenzyl 4-(2,6-dichlorophenyl)-2-methyl-5-oxo-1,4,5,6,7,8-hexahydroquinoline-3-carboxylate], the “hERG Patch Clamp hERG % blk (1 μM test cmpd)” value worked out at 12% and the “hERG Patch Clamp hERG % blk (10 μM test cmpd)” value is 30.5%.
